Experiment [1] has as its target Tyrosine-protein kinase JAK1 (Homo sapiens, UniProt P23458). As to the kind of experiment: (§1) JAK Caliper Enzyme Assay at 1 mM ATP: Test article was solubilized in dimethyl sulfoxide (DMSO) to a stock concentration of 30 mM. An 11-point half log dilution series was created in DMSO with a top concentration of 600 μM. […] The compound plates were diluted 1 to 60 resulting in a top final assay compound concentration of 10 μM and a 2% DMSO concentration.Test article and assay controls were added to a 384-well plate. Reaction mixtures contained 20 mM HEPES, pH 7.4, 10 mM magnesium chloride, 0.01% bovine serum albumin (BSA), 0.0005% Tween 20, 1 mM ATP and 1 μM peptide substrate. The JAK1 and TYK2 assays contained 1 μM of the IRStide peptide (5FAM-[…]) and the JAK2 and JAK3 assays contained 1 μM of the JAKtide peptide (FITC-[…]). […] Enzyme concentrations and incubation times were optimized for each new enzyme preps and were modified slightly over time to ensure 20%-30% phosphorylation. The assays were stopped with a final concentration of 10 mM EDTA, 0.1% Coating Reagent and 100 mM HEPES, pH=7.4. The assay plates were placed on a Caliper Life Science Lab Chip 3000 (LC3000) instrument, and each well was sampled using appropriate separation conditions to measure the unphosphorylated and phosphorylated peptide.

The target in experiment [2] is Non-receptor tyrosine-protein kinase TYK2 (Homo sapiens, UniProt P29597). Described as §1.
In experiment [3] the target is T1, Tyrosine-protein kinase JAK3 (Homo sapiens, UniProt P52333).
T1 sequence (P52333 whole entry): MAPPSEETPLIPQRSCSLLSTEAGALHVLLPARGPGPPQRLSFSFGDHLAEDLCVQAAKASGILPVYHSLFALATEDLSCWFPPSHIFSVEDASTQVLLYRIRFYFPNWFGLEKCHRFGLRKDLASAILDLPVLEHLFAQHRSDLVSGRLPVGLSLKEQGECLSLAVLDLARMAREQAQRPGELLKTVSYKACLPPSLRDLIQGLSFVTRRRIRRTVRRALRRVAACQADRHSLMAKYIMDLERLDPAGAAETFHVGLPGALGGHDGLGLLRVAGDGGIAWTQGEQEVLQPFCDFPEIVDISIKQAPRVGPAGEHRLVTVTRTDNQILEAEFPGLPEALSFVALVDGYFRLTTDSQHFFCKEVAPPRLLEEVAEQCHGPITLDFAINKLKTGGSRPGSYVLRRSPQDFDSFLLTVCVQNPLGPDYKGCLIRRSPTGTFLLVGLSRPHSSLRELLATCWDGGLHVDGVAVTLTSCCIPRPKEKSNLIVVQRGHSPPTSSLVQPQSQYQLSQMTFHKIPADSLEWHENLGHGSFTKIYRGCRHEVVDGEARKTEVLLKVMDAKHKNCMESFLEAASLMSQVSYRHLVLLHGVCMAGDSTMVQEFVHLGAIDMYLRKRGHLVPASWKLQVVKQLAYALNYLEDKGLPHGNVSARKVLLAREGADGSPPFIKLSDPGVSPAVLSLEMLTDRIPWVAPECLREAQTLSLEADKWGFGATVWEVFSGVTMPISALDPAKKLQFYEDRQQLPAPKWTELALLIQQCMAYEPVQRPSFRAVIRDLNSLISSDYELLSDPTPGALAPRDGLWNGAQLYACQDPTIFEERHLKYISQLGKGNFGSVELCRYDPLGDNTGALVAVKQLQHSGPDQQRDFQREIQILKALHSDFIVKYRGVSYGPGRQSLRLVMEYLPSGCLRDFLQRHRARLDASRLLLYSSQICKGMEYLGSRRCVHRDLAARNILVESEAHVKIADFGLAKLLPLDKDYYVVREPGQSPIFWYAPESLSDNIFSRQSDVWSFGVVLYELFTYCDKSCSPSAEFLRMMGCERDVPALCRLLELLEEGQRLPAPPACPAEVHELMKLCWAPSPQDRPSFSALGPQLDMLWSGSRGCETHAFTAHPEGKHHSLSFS
Described as §1.

Experiment [4] deals with Tyrosine-protein kinase JAK2 (Homo sapiens, UniProt O60674). In words: JAK Caliper Enzyme Assay at 1 mM ATP: Test article was solubilized in dimethyl sulfoxide (DMSO) to a stock concentration of 30 mM. An 11-point half log dilution series was created in DMSO with a top concentration of 600 μM. […] The compound plates were diluted 1 to 60 resulting in a top final assay compound concentration of 10 μM and a 2% DMSO concentration.Test article and assay controls were added to a 384-well plate. Reaction mixtures contained 20 mM HEPES, pH 7.4, 10 mM magnesium chloride, 0.01% bovine serum albumin (BSA), 0.0005% Tween 20, 1 mM ATP and 1 μM peptide substrate. […] Enzyme concentrations and incubation times were optimized for each new enzyme preps and were modified slightly over time to ensure 20%-30% phosphorylation. The assays were stopped with a final concentration of 10 mM EDTA, 0.1% Coating Reagent and 100 mM HEPES, pH=7.4. The assay plates were placed on a Caliper Life Science Lab Chip 3000 (LC3000) instrument, and each well was sampled using appropriate separation conditions to measure the unphosphorylated and phosphorylated peptide.
Sequence of Tyrosine-protein kinase JAK2 (O60674 whole entry): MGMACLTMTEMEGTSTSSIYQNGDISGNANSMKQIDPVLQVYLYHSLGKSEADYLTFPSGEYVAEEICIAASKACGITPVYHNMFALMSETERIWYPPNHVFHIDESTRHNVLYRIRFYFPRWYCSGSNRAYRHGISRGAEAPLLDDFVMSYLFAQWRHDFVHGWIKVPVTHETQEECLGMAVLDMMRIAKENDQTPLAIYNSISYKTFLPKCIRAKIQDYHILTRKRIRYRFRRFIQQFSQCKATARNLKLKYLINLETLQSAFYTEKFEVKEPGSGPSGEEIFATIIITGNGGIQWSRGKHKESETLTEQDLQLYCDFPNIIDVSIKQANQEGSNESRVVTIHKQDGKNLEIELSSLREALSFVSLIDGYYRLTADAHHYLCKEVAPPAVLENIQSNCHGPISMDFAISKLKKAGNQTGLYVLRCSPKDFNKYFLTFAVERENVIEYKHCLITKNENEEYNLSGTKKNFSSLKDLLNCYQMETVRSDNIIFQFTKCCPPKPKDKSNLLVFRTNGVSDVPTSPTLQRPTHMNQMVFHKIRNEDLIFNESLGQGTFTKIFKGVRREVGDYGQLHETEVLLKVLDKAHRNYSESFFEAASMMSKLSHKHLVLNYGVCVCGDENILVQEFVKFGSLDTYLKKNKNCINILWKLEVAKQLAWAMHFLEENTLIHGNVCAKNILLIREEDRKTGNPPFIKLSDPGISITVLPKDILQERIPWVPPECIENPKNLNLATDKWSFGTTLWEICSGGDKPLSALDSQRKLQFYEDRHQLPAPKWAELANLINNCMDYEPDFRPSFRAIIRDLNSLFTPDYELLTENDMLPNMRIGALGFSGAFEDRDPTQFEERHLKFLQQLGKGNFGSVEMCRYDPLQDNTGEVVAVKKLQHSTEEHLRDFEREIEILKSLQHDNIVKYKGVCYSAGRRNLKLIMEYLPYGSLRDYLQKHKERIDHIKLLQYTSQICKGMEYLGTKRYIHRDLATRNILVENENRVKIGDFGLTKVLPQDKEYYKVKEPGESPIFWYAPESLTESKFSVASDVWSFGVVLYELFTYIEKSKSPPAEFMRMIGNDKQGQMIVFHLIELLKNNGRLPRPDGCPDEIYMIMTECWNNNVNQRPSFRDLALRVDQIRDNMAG

Sequence of Tyrosine-protein kinase JAK1 (P23458 whole entry): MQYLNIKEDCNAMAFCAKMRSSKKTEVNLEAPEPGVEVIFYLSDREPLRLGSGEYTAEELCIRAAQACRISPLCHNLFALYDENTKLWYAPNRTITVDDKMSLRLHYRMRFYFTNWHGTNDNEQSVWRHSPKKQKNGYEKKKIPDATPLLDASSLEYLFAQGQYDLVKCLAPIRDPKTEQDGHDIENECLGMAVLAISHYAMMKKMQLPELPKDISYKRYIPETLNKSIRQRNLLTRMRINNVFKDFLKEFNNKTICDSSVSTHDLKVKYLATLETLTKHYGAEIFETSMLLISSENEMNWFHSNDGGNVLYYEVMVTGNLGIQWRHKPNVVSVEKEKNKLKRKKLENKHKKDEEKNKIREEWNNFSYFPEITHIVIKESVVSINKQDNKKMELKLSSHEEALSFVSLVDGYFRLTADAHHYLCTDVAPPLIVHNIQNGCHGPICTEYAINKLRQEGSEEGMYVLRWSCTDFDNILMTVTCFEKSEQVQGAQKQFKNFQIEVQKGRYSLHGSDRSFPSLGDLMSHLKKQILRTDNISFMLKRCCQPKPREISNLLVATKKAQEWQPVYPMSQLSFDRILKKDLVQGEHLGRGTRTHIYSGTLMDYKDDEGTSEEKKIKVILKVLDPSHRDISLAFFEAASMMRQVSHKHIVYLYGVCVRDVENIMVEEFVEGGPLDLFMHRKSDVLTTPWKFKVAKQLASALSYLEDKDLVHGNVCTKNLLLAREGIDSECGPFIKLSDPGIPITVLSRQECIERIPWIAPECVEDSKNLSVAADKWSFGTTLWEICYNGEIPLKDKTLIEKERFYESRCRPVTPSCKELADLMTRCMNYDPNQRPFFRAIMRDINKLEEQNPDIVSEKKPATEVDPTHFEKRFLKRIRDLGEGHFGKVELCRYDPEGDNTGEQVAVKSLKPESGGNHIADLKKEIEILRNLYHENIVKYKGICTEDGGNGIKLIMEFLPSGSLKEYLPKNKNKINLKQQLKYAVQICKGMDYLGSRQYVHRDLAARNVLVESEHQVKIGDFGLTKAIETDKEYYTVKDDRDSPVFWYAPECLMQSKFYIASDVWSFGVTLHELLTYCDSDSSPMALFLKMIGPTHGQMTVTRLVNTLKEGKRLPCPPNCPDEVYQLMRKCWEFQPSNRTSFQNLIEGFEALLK
Sequence of Non-receptor tyrosine-protein kinase TYK2 (P29597 whole entry): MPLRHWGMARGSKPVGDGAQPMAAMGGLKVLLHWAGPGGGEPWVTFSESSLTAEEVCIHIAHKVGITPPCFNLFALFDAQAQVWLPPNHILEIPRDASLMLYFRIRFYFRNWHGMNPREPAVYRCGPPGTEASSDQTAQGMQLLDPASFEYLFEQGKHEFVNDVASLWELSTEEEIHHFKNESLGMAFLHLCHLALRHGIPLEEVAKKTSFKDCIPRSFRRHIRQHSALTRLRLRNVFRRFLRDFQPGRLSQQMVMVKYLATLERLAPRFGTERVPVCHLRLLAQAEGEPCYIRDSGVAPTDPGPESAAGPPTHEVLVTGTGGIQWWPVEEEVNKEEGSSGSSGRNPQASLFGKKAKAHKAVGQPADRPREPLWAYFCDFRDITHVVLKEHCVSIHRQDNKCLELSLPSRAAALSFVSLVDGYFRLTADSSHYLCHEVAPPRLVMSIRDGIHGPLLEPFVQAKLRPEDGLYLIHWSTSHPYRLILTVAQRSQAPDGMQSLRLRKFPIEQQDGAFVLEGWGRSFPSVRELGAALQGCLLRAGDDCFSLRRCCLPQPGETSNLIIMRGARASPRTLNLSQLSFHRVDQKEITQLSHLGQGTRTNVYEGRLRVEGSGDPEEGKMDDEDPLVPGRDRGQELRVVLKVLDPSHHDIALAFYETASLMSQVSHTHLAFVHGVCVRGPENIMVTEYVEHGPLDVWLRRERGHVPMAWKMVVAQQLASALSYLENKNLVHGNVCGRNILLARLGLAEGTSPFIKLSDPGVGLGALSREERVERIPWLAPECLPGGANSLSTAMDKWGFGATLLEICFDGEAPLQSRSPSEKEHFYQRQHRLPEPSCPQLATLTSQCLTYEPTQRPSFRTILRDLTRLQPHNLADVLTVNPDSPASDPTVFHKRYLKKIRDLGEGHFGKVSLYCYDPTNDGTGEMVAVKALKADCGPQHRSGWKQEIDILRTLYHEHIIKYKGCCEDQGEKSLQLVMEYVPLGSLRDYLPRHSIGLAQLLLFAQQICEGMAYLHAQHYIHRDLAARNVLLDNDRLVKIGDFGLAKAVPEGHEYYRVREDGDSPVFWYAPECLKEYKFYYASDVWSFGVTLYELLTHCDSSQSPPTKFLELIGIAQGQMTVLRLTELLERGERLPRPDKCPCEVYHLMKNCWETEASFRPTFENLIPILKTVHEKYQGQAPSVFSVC

For `CC(=O)N1CCc2[nH]c(-c3n[nH]c4nc(-c5cc(F)c(O)cc5CC(F)(F)F)nc(NCc5cc(O)ccc5N(C)S(C)(=O)=O)c34)nc2C1`, the concentration for half-maximal inhibition (IC50) in experiment [1] worked out at 3.2 nM.
As for `CCc1cc(O)ccc1-c1cc2[nH]ncc2c(N2CCc3cc(OCCOC)ccc3C2)n1`, the IC50 in experiment [2] came to 289 nM; in experiment [1], 10.1 nM; in experiment [3], 56.2 nM; in experiment [4] it was 25.9 nM.
As for `CCc1cc(O)ccc1-c1cc2[nH]ncc2c(N2CCc3cc(-n4cnc(C)c4)ccc3C2)n1`, the IC50 came to 723 nM in experiment [2], 10.7 nM in experiment [1], 42.4 nM in experiment [3] and 26.3 nM in experiment [4].
Consider `CCc1cc(O)c(F)cc1-c1cc2[nH]ncc2c(NCc2ccccc2N(C)S(=O)(=O)CC)n1`, for which the half-maximal inhibitory concentration (IC50) in experiment [2] came to 8.4 nM; in experiment [1], 0.7 nM; in experiment [3], 17.3 nM.
Turning to `CCc1cc(O)ccc1-c1cc2[nH]ncc2c(N2CCc3cccc(OC)c3C2)n1`, the half-maximal inhibitory concentration (IC50) came out at 478 nM in experiment [2], 78.1 nM in experiment [3] and 25.1 nM in experiment [4].
Turning to `CCc1cc(O)ccc1-c1cc2[nH]ncc2c(N2CCc3c(Cl)cccc3C2)n1`, the IC50 in experiment [2] came to 561 nM; in experiment [1] it was 39.4 nM; in experiment [3] it was 111 nM; in experiment [4], 46.5 nM.
As to `CN(c1ccc(O)cc1CNc1nc(-c2cc(F)c(O)cc2CC(F)(F)F)nc2[nH]nc(C(N)=O)c12)S(=O)(=O)c1ccccc1`, in experiment [4], the half-inhibitory concentration (IC50) was determined as 123 nM.
Regarding `CCc1cc(O)ccc1-c1cc2[nH]ncc2c(N2CCc3cc(OC)c(OCc4ccccc4)cc3C2)n1`, the values for the 50% inhibitory concentration (IC50) in experiment [2], in experiment [1] and in experiment [3] were 2730 nM, 67.4 nM and 340 nM, respectively.
As to `CSCCNc1nc(-c2cc(F)c(O)cc2CC(F)(F)F)cc2[nH]nc(-c3nc4c([nH]3)CCN(Cc3ccccc3)C4)c12`, the IC50 was 172 nM in experiment [2], 50 nM in experiment [1], 589 nM in experiment [3] and 196 nM in experiment [4].
Taken in the same sequence, the figures for `CCc1cc(O)ccc1-c1cc2[nH]ncc2c(N2CCc3cc(F)ccc3C2)n1` were 302 nM, 9.7 nM, 40.8 nM and 16.9 nM.
On to `CCCCN(c1ccccc1CN(C)c1nc(-c2cc(F)c(O)cc2CC)cc2[nH]ncc12)S(C)(=O)=O`, for which the IC50 in experiment [1] amounted to 19.5 nM; in experiment [3], 61.6 nM; in experiment [4], 43.2 nM.
For the compound `CCc1cc(O)ccc1-c1cc2[nH]ncc2c(N2CCc3ccc(OC)c(OC)c3C2)n1`, the IC50 in experiment [2] was determined as 1540 nM; in experiment [1], 13.8 nM; in experiment [3], 194 nM; in experiment [4] it was 52.4 nM.
The like results for `CN(c1ccc(F)cc1CNc1nc(-c2cc(F)c(O)cc2CC(F)(F)F)cc2[nH]nc(C(N)=O)c12)S(C)(=O)=O` were, in that order, 127 nM, 6.6 nM, 140 nM and 41.1 nM.

What is called IC50 is the concentration at which inhibition is half-maximal.
